# Source: patent US20250312321A1, “TRANSIENT SIROLIMUS WITH FASL MICROGELS” (iTOLERANCE, Inc., priority 2022, published 2025)
# Design: species or system non-human primates (Cyno)
# Details: cynomolgus monkey, in vivo
# Experimental: Biotinylated PEG microgels (150 μm diameter) were synthesized by microfluidic cross-linking and functionalized with SA-FasL as previously described (Headon, D M, et al., Nat. Mater. 17:732-739 (2018)). Four diabetic non-human primates (NHP) (FIG. 1B; Tables 1 and 2) underwent transplantation of allogeneic islets (14,800 to 18,700 islet equivalents (IEQ)/kg) mixed with SA-FasL-presenting microgels (150,000 to 200,000 microgels delivering 0.2 mg of SA-FasL) on the omental surface. […]
# At selected time points, intravenous glucose tolerance tests (IVGTT) were performed to assess glucose disposal kinetics and insulin and C-peptide levels. […] Consistent with these metrics of graft function, background levels of insulin and C-peptide were measured in the serum of SA-FasL microgel NHPs after STZ administration but before islet transplant and equivalently low levels were evident post-graft removal (insulin: pre-STZ vs. post-STZ, P<0.0001; post-STZ vs. post-graft removal (PGR), P=0.9998; C-peptide: pre-STZ vs. post-STZ, P=0.0060; post-STZ vs. post-graft removal, P=0.4032) (FIG. 2D). […] SA-FasL protein was detected in the serum of all NHPs as early as 1-day after transplantation ranging from 4-56 ng/mL and decreasing to background levels by days 7-14.
compound,measurement,value
CO[C@H]1C[C@@H]2CC[C@@H](C)[C@@](O)(O2)C(=O)C(=O)N2CCCC[C@H]2C(=O)O[C@H]([C@H](C)C[C@@H]2CC[C@@H](O)[C@H](OC)C2)CC(=O)[C@H](C)/C=C(\C)[C@@H](O)[C@@H](OC)C(=O)[C@H](C)C[C@H](C)/C=C/C=C/C=C/1C [Sirolimus],Time after discontinuation at which sirolimus levels became undetectable,2 weeks
